“And” between values parts separate entries of the source, which are not always exact repeats. Equal values may be shown once.
Tests used:
Settings in all cases: incubation time: 72 h
[1] = system: MCF-10A; experiment: drug sensitivity score (DSS), CellTiter-Glo (DSS (AUC-based score)); higher = stronger drug effect (viability inhibition or cytotoxicity); extreme values may be limits of the assay
Outline: (§1)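 In 384-well plates, compound was laid out at 5 concentrations in 10-fold steps over a 10,000-fold range specific to each compound, and breast cancer cell lines were seeded on top in 20 µl suspension for a 72 h incubation. CellTox Green fluorescence and then CellTiter-Glo luminescence were read, and each plate was normalised to 0.1 % DMSO and a positive kill control. The drug sensitivity score was calculated from the area under the fitted dose-response curve.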

[2] = system: Hs578T; experiment: as above
Outline: as §1

[3] = system: BT-549; experiment: as above
Outline: as §1

[4] = system: HCC1599; experiment: as above
Outline: as §1

[5] = system: HCC1937; experiment: as above
Outline: as §1

[6] = system: BT-474; experiment: as above
Outline: as §1

[7] = system: CAL-51; experiment: as above
Outline: as §1

[8] = system: HCC1143; experiment: as above
Outline: as §1

[9] = system: SK-BR-3; experiment: as above
Outline: as §1

[10] = system: MDA-MB-231; experiment: as above
Outline: as §1

[11] = system: CAL-85-1; experiment: as above
Outline: as §1

[12] = system: CAL-148; experiment: as above
Outline: as §1

[13] = system: MFM-223; experiment: as above
Outline: as §1

[14] = system: MDA-MB-453; experiment: as above
Outline: as §1

[15] = system: CAL-120; experiment: as above
Outline: as §1

[16] = system: MDA-MB-436; experiment: as above
Outline: as §1

[17] = system: DU-4475; experiment: normalised viability (% of control), CellTiter-Blue; higher = more viable cells (about 100 = DMSO control)
Outline: (§2)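 Each entry is normalised viability at a single listed concentration within a series. It comes from breast cancer cell lines incubated 72 h with compound in 384-well plates, then measured with CellTiter-Blue fluorescence at 560/590 nm. Every plate was normalised between vehicle (100) and a positive kill control (0).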

[18] = system: Hs578T; experiment: as above
Outline: as §2

[19] = system: HCC1937; experiment: as above
Outline: as §2

[20] = system: CAL-51; experiment: as above
Outline: as §2

[21] = system: MDA-MB-468; experiment: as above
Outline: as §2

[22] = system: MDA-MB-231; experiment: as above
Outline: as §2

[23] = system: CAL-85-1; experiment: as above
Outline: as §2

[24] = system: MFM-223; experiment: as above
Outline: as §2

[25] = system: CAL-120; experiment: as above
Outline: as §2

CC(=O)[C@]1(O)Cc2c(O)c3c(c(O)c2[C@@H](O[C@H]2C[C@H](N)[C@H](O)[C@H](C)O2)C1)C(=O)c1ccccc1C3=O [Idarubicin]
Settings	drug sensitivity score
[1]	3.11
[2]	6.15
[3]	9.35
[4]	3.71
[5]	2.31
[6]	4.44
[7]	14.5
[8]	3.11
[9]	7.9
[10]	4.79
[11]	6.75
[12]	10.5
[13]	3.67
[14]	1.75
[15]	1.91
[16]	8.24

normalised viability [%]
Settings	[17]	[18]	[19]	[20]	[21]	[22]	[23]	[24]	[25]
0.3 nM	89.8	–	–	106	–	–	104	–	–
1 nM	–	107	90.3	–	100	101	–	107	108
3 nM	90.2	–	–	98	–	–	91.9	–	–
10 nM	55.7	–	–	44.2	–	–	94.3	–	–
100 nM	–	57.1	22.1	–	41.2	41.5	–	92.5	40.7
1000 nM	–	5.7	21.3	–	4.98	8.68	–	11.5	11.1

CO[C@@]12[C@H](COC(N)=O)C3=C(C(=O)C(C)=C(N)C3=O)N1C[C@@H]1N[C@@H]12 [Mitomycin C]
Settings	drug sensitivity score
[1]	0
[2]	0
[3]	8.27
[4]	0
[5]	0
[6]	0
[7]	10.5
[8]	0
[9]	1.42
[10]	0
[11]	2.91
[12]	0
[13]	0
[14]	0
[15]	0.335
[16]	3.39

normalised viability [%]
Settings	[17]	[18]	[19]	[20]	[21]	[22]	[23]	[24]	[25]
3 nM	105	–	–	119	–	–	104	–	–
10 nM	–	113	88.4	–	95.3	108	–	96.9	92.4
30 nM	83.6	–	–	118	–	–	98.4	–	–
100 nM	91	–	–	107	–	–	105	–	–
1000 nM	–	98.9	45.4	–	78.5	76.1	–	96.2	91.5
10000 nM	–	5.32	21.6	–	8.5	47.3	–	8.74	40.4

CC(C)C[C@H](NC(=O)[C@@H](COC(C)(C)C)NC(=O)[C@H](Cc1ccc(O)cc1)NC(=O)[C@H](CO)NC(=O)[C@H](Cc1c[nH]c2ccccc12)NC(=O)[C@H](Cc1cnc[nH]1)NC(=O)[C@@H]1CCC(=O)N1)C(=O)N[C@@H](CCCNC(=N)N)C(=O)N1CCC[C@H]1C(=O)NNC(N)=O [Goserelin]
Settings	drug sensitivity score
[1]	0
[2]	0
[3]	0
[4]	0
[5]	0
[6]	0
[7]	0
[8]	0
[9]	0
[10]	0
[11]	0
[12]	0
[13]	0
[14]	0
[15]	0
[16]	0

normalised viability [%]
Settings	[17]	[18]	[19]	[20]	[21]	[22]	[23]	[24]	[25]
3 nM	91.4	–	–	107	–	–	102	–	–
10 nM	–	105	104	–	96.5	102	–	92.1	96.4
30 nM	84	–	–	104	–	–	93.9	–	–
100 nM	111	–	–	105	–	–	102	–	–
1000 nM	–	98	85.1	–	94.5	110	–	87.8	93.1
10000 nM	–	104	97.4	–	108	114	–	100	94.4

O=C(CCCCCCC(=O)Nc1ccccc1)NO [Vorinostat]
Settings	drug sensitivity score
[1]	1.17
[2]	2.53
[3]	1.14
[4]	4.43
[5]	3.4
[6]	4.8
[7]	8.31
[8]	4.04
[9]	5.14
[10]	5.59
[11]	4.06
[12]	5.5
[13]	3.32
[14]	10.6
[15]	3.27
[16]	0

normalised viability
Settings	[17]	[18]	[19]	[20]	[21]	[22]	[23]	[24]	[25]
3 nM	108% and 97.7%	–	–	113% and 102%	–	–	91% and 103%	–	–
10 nM	–	111% and 118%	73% and 92.4%	–	105%	99.4% and 89.5%	–	97.4% and 103%	92.3% and 99.7%
30 nM	104% and 99.7%	–	–	102%	–	–	85.7% and 96.9%	–	–
100 nM	99.1% and 94.5%	–	–	106% and 97.5%	–	–	100% and 106%	–	–
1000 nM	–	88.4% and 87%	77.7% and 63.4%	–	80.6% and 76%	88.3% and 84.1%	–	84% and 74%	65.1% and 68.3%
10000 nM	–	12.3% and 11.5%	24.6% and 22.7%	–	32.5% and 40.6%	13.9% and 12.9%	–	19.7% and 18.4%	11.5% and 18.7%

Reference: the supplement of paper PMC4862054
